Measured values from ChEMBL document CHEMBL5260859, “Discovery and structure-activity relationship study of 2-piperazinyl-benzothiazole derivatives as potent and selective PPARδ agonists” (Bioorg Med Chem, 2023).

Experiments:
[1] = biological target: T1, Peroxisome proliferator-activated receptor delta (Homo sapiens, UniProt Q03181); experiment: Agonist activity at Gal4-fused human PPAR-delta ligand binding domain expressed in CHO-K1 cells assessed as receptor transactivation incubated for 24 to 48 hrs by luciferase reporter gene assay; type: cell-based
T1 sequence (Q03181 whole entry): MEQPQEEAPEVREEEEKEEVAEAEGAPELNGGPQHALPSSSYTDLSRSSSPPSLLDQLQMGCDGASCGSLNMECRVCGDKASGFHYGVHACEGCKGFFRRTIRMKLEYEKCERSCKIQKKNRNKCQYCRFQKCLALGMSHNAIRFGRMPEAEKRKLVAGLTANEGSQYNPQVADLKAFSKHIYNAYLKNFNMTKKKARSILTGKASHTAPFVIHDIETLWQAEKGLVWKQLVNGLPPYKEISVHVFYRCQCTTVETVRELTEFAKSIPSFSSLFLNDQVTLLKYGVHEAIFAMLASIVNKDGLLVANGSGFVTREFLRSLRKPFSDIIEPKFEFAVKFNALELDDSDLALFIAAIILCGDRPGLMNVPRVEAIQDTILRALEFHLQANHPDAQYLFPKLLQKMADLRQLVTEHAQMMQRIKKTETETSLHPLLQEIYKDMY

Mus musculus [2] = organism: Mus musculus; experiment: Selectivity ratio of EC50 for agonist activity at Gal4-fused mouse PPAR-alpha ligand binding domain expressed in CHO-K1 cells to EC50 for agonist activity at Gal4-fused mouse PPAR-delta ligand binding domain expressed in CHO-K1 cells; type: cell-based
[3] = biological target: T2, Peroxisome proliferator-activated receptor alpha (Mus musculus) (UniProt P23204); experiment: Agonist activity at Gal4-fused mouse PPAR-alpha ligand binding domain expressed in CHO-K1 cells assessed as receptor transactivation incubated for 24 to 48 hrs by luciferase reporter gene assay relative to control; type: cell-based; settings: time lower 24.0 hrs, time upper […]
T2 sequence (whole entry): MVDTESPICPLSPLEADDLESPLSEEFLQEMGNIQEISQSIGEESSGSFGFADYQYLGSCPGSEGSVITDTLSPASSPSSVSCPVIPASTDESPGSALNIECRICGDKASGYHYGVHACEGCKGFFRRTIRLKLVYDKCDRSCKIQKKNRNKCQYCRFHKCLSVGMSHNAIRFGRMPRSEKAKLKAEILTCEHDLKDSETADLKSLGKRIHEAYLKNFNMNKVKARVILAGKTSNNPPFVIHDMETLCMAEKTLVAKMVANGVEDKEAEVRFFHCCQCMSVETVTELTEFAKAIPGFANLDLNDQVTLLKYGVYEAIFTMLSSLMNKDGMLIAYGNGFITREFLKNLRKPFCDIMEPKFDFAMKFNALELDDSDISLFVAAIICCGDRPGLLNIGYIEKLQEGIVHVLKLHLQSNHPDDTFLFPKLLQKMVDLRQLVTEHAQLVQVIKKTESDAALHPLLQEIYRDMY

[4] = biological target: T3, Peroxisome proliferator-activated receptor gamma (Homo sapiens, UniProt P37231); type: cell-based, CHO-K1
T3 sequence (P37231 whole entry): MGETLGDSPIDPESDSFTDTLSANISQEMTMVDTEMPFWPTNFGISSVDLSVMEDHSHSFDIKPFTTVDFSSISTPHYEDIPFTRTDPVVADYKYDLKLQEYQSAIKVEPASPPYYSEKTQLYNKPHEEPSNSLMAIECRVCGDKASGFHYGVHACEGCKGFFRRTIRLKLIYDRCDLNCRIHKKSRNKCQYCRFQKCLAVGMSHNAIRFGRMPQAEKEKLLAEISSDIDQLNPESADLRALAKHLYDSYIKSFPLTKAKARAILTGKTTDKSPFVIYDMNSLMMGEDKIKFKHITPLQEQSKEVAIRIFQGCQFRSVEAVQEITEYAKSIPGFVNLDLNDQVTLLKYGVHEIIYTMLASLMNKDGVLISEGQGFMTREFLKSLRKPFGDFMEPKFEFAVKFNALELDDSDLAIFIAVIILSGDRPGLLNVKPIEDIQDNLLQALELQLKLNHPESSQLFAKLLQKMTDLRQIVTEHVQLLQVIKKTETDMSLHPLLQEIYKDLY

[5] = biological target: T4, Peroxisome proliferator-activated receptor alpha (Mus musculus, UniProt P23204); experiment: Agonist activity at Gal4-fused mouse PPAR-alpha ligand binding domain expressed in CHO-K1 cells assessed as receptor transactivation incubated for 24 to 48 hrs by luciferase reporter gene assay; type: cell-based
T4 sequence (P23204 whole entry): T2 sequence (whole entry)

[6] = biological target: T5, Peroxisome proliferator-activated receptor delta (Mus musculus, UniProt P35396); experiment: Agonist activity at Gal4-fused mouse PPAR-delta ligand binding domain expressed in CHO-K1 cells assessed as receptor transactivation incubated for 24 to 48 hrs by luciferase reporter gene assay; type: cell-based
T5 sequence (P35396 whole entry): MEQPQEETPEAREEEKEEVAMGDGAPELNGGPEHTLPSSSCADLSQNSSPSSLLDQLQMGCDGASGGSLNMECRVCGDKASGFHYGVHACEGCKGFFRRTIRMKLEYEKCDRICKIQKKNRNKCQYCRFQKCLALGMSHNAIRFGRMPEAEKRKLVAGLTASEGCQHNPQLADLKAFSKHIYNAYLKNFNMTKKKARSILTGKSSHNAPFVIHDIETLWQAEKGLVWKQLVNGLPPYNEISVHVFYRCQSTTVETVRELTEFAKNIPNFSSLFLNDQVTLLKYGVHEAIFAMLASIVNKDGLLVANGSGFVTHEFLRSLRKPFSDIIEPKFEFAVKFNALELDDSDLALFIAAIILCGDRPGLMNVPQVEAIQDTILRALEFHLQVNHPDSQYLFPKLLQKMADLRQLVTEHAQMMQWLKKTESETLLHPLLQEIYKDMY

[7] = biological target: T6, Peroxisome proliferator-activated receptor alpha (Homo sapiens) (UniProt Q07869); experiment: Agonist activity at Gal4-fused human PPAR-alpha ligand binding domain expressed in CHO-K1 cells assessed as receptor transactivation incubated for 24 to 48 hrs by luciferase reporter gene assay relative to control; type: cell-based; settings: time lower 24.0 hrs, time upper […]
T6 sequence (whole entry): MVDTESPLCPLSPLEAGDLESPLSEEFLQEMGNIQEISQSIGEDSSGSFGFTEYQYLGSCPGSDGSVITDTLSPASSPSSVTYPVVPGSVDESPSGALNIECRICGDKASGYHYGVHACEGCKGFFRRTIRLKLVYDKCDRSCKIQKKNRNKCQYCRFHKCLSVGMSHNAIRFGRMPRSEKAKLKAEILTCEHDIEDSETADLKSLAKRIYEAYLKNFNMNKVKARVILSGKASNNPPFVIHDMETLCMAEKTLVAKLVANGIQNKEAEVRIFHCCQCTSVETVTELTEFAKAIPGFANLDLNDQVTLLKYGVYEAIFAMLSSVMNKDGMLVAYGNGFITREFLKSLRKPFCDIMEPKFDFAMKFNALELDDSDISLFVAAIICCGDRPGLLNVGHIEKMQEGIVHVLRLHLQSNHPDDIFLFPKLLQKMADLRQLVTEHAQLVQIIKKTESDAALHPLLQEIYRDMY

[8] = biological target: T7, Peroxisome proliferator-activated receptor delta (Homo sapiens) (UniProt Q03181); experiment: Agonist activity at Gal4-fused human PPAR-delta ligand binding domain expressed in CHO-K1 cells assessed as receptor transactivation incubated for 24 to 48 hrs by luciferase reporter gene assay relative to control; type: cell-based; settings: time lower 24.0 hrs, time upper […]
T7 sequence (whole entry): T1 sequence (Q03181 whole entry)

[9] = biological target: T8, Peroxisome proliferator-activated receptor delta (Mus musculus) (UniProt P35396); experiment: Agonist activity at Gal4-fused mouse PPAR-delta ligand binding domain expressed in CHO-K1 cells assessed as receptor transactivation incubated for 24 to 48 hrs by luciferase reporter gene assay relative to control; type: cell-based; settings: time lower 24.0 hrs, time upper […]
T8 sequence (whole entry): T5 sequence (P35396 whole entry)

[10] = biological target: T9, Peroxisome proliferator-activated receptor gamma (Mus musculus, UniProt P37238); experiment: Agonist activity at Gal4-fused mouse PPAR-gamma ligand binding domain expressed in CHO-K1 cells assessed as receptor transactivation incubated for 24 to 48 hrs by luciferase reporter gene assay; type: cell-based
T9 sequence (P37238 whole entry): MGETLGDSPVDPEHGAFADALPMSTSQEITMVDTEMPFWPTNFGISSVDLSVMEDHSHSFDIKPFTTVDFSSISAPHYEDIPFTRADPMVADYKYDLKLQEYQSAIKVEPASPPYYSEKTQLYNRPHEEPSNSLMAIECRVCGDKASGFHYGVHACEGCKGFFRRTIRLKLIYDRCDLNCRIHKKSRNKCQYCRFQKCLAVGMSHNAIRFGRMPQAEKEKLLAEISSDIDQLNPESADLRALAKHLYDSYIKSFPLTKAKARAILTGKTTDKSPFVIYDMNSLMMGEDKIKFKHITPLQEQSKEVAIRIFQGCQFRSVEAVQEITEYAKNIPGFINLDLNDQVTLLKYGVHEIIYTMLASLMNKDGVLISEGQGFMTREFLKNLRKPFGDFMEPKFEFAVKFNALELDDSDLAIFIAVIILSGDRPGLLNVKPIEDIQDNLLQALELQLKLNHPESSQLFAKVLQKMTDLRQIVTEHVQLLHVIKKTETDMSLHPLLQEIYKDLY

Mus musculus [11] = organism: Mus musculus; experiment: Selectivity ratio of EC50 for agonist activity at Gal4-fused mouse PPAR-gamma ligand binding domain expressed in CHO-K1 cells to EC50 for agonist activity at Gal4-fused mouse PPAR-delta ligand binding domain expressed in CHO-K1 cells; type: cell-based
Mus musculus [12] = experiment: Antihypercholesterolemic activity against hApoB100/hCETP-dTg hypercholesterolemic mouse model assessed as serum non-HDL-C level at 3 mg/kg, po administered once daily for 8 days; type: functional; settings: time 8 day
Mus musculus [13] = experiment: Antihypercholesterolemic activity against hApoB100/hCETP-dTg hypercholesterolemic mouse model assessed as serum HDL-C level at 3 mg/kg, po administered once daily for 8 days; type: functional; settings: time 8 day

SMILES	EC50 [1] [nM]	Emax [3] [%]	EC50 [4] [nM]	EC50 [5] [µM]	EC50 [6] [nM]	Emax [7] [%]	Emax [8] [%]	Emax [9] [%]	EC50 [10] [nM]	Ratio EC50 (Mus musculus [2])	Ratio EC50 (Mus musculus [11])	Activity (Mus musculus [12]) [%]	Activity (Mus musculus [13]) [%]
Cc1cc(CC(=O)O)cc(CN2CCN(c3nc4ccc(C(F)(F)F)cc4s3)[C@@H](CC(C)C)C2)c1	19	4.5	1500	5.8	79	1.4	13.6	17.9		73			
Cc1cc(CC(=O)O)cc(CN2CCN(c3nc4ccc(C(F)(F)F)cc4s3)C[C@H]2C)c1	9.9	19		8	34		15.5	22.1					
Cc1cc(CC(=O)O)cc(CN2CCN(c3nc4ccc(C(F)(F)F)cc4s3)[C@H](C(C)C)C2)c1	3.7	1.3			7.5		13.1	14.6	230				
CC(C)C[C@H]1CN(c2nc3ccc(Cl)cc3s2)CCC1CCOc1cc(CC(=O)O)ccc1Cl (stereo not given in full)	17	4.6	1100		61	3.1	23.2	28.3	660		11		
Cc1cc(CC(=O)O)cc(CN2CCN(c3nc4ccc(C(F)(F)F)cc4s3)C[C@@H]2C)c1	6.9	1.1			28		19.5	22.1					
Cc1ccc(CC(=O)O)cc1OCCN1CCN(c2nc3ccc(Cl)cc3s2)CC1	33				110		14.4	25.3					
CC[C@H]1CN(c2nc3ccc(Cl)cc3s2)CCC1CCOc1cc(CC(=O)O)ccc1Cl (stereo not given in full)		6.1		3.4	5.8			31.3	390				
Cc1cc(SCc2sc(-c3ccc(C(F)(F)F)cc3)nc2C)ccc1OCC(=O)O [GW501516]												67	141
Cc1cc(CC(=O)O)cc(CN2CCN(c3nc4ccc(C(F)(F)F)cc4s3)CC2)c1		6.6		3				19	3300				
CC[C@H]1CN(Cc2cc(C)cc(CC(=O)O)c2)CCN1c1nc2ccc(C(F)(F)F)cc2s1		9.1		3.8				30.8	670				
CC[C@@H]1CN(Cc2cc(C)cc(CC(=O)O)c2)CCN1c1nc2ccc(C(F)(F)F)cc2s1		2.8		8.5				33.1	40				

More lines, main results first:

EC50 [1] [nM]	Emax [3] [%]	EC50 [4] [nM]	EC50 [5] [µM]	EC50 [6] [nM]	Emax [7] [%]	Emax [8] [%]	Emax [9] [%]	EC50 [10] [nM]	SMILES	Ratio EC50 (Mus musculus [2])	Ratio EC50 (Mus musculus [11])	Activity (Mus musculus [12]) [%]	Activity (Mus musculus [13]) [%]
5	8.3		7.1	12		15.5	23.2		C[C@H]1CN(c2nc3ccc(Cl)cc3s2)CCN1CCOc1cc(CC(=O)O)ccc1Cl				
7.9	12.5		3.9	46		21.9	27.6	4.1	C[C@@H]1CN(CCOc2cc(CC(=O)O)ccc2Cl)CCN1c1nc2ccc(Cl)cc2s1				
16	21		3.2	47		19.8	28.3		C[C@@H]1CN(c2nc3ccc(Cl)cc3s2)CCN1CCOc1cc(CC(=O)O)ccc1Cl				
	14.2		3.6	47	3		28.7	1000	CC1CN(c2nc3ccc(Cl)cc3s2)CCC1CCOc1cc(CC(=O)O)ccc1Cl (stereo not given)				
17	16.7		13	27		23.9	27.9	150	C[C@H]1CN(CCOc2cc(CC(=O)O)ccc2Cl)CCN1c1nc2ccc(Cl)cc2s1				
	6.9		4.9	25			21.7	500	Cc1ccc(CC(=O)O)cc1OCCN1CCN(c2nc3ccc(Cl)cc3s2)C[C@@H]1C				
